System: Ratte
Experiment: PCA test in the rat, oral administration
Format: in vivo
Conditions: factor by which the ED50 is lower than that of Verbindung A (no absolute ED50 printed)

Compound: CC(C)c1ccc(Nc2ccc(C(=O)O)cc2C(=O)O)nc1
- Fold lower ED50 than compound A (rat PCA test, oral): ca. 100 mal

Source: patent EP0056114A1, “Pyridylamino benzoic acids, their preparation and use” (C.H. BOEHRINGER SOHN, priority 1981, dated 1982)
